Measured values published in patent publication US20200345746A1, “Oxazine Derivative for Use in the Prevention of Alzheimer's Disease in at Risk Patents” (Novartis AG, priority 2016, published 2020).
Where “and” joins values, the source holds several entries; their conditions need not be identical. Equal entries are not always repeated.

Legend:
total Aβ (40+42) = experiment: Formic acid soluble total Aβ (40+42) and Aβ42/40 ratio in APP23 mouse forebrain; assay type: in vivo
Protocol: (§1) Frozen mouse forebrains were weighed and homogenized in 9 volumes (w/v) of ice-cold TBS-Complete (20 mM Tris-HCl pH 7.4, 137 mM NaCl, 1× Complete [Protease Inhibitor Cocktail Tablets: 1 836 145, Roche Diagnostics GmbH, Penzberg, Germany]) by sonication (90% duty cycle, output control 5, 40-55 pulses, [Sonifier 450, Branson]). After homogenization several 50 μl aliquots were prepared for analysis and were stored at −80° C.
Fifty microliter of forebrain homogenate was mixed with 116.6 μl 100% formic acid, resulting in a final formic acid concentration of 70%. Samples were stored on ice and vortexed every 5 minutes. For neutralization, 50 μl of the mixture were pipetted into a new tube, and 950 μl of 1 M Tris base, containing 1× Complete Protease inhibitor, was added. Tubes were stored at room temperature overnight and then centrifuged for 15 minutes at 14000 rpm in an Eppendorf Microzentrifuge at 4° C. From the top layer, 100 μl are removed and mixed with 100 μl of 3% Blocker A solution (part of the MesoScale assay kit). This sample was either directly applied to the assay plate (dilution 1:1332) or further diluted in 1% Blocker A solution.

IBA1 positive microglia = IBA1 positive microglia in APP23 mice; assay type: in vivo, mouse; conditions: for Distal IBA1+ area / Non-plaque-associated IBA1+ area* / Plaque-associated IBA1+ area / Proximal IBA1+ area / Total IBA1+ area: normalized by total area, mean + SEM
Protocol: Amyloid plaques were stained using the same antibody and the microglia cells were detected using a rabbit anti-IBA1 antibody (reference 019-19741) from Wako Chemicals GmbH (Neuss, Germany) and diluted at 1/200 in antibody diluent. The staining protocol was exactly similar to the protocol for amyloid-beta plaques and astrocytes. The slides were scanned with the same settings.
For the beta-amyloid plaque and neuroinflammation analysis, the following sequence of steps was performed: • Slides were scanned with Hamamatsu Nanozoomer at 40× magnification. For each fluorescence labelling (DAPI, FITC and TRITC), a separate image was created • Manually outline ROIs (regions of interest) for defining cortex in brain sections for Aβ plaque assessment on the green FITC channel image, then use the resulting outline also for the other two channel images (copy resulting xml files) • Run the in-house developed ImageScope (V12.1.0.5029, Aperio Inc., USA) plug-in for creation and export of *.tif image tiles (at 10× magnification) for each of the 3 fluorescence channels
Image Batch Processing: • Obtain the combined true color image (DAPI, FITC, TRITC) for each section through accessing each individual fluorescence channel image • Segmentation of valid sample (within outlined ROI) from black unstained background • Apply adaptive thresholding technique for segmentation of objects in green channel image
(FITC-labeled Aβ plaques) • Separation of touching objects for correct subsequent individual object analysis after elimination of too small debris showing signal in the green (FITC) channel • Segmentation of TRITC-labeled objects in red channel (specific for GFAP or Iba1 staining indicating astrocytes or microglia) through morphological tophat transformation and thresholding • Feature based object classification
Computation of several morphometric and densitometric features for valid plaques • Number of plaques • “Specific optical density” which has been described to reflect the amount of protein (antigen) concentration, based on measuring and using the staining intensity of an appropriate antibody in a non-linear way (Rahier et al., 1989; Ruifrok et al., 2001) • assessment of “plaque-associated GFAP or Iba1” based on the ratio of TRITC+ signal vs plaque area, “proximal GFAP or Iba1” based on ratio of TRITC+ signal within dilation ring around plaque

Aβ40 = Aβ40 in C57BL/6 mouse brain after chronic dosing (MSD assay); assay type: in vivo; conditions: for Average Aβ40 brain: mean ± SD, n = 4
Protocol: as §1
Human Aβ peptide (1-40) trifluoroacetate salt (H 1194.1000, Bachem, Bubendorf, Switzerland) was used as calibration curve for Aβ1-40. It was solubilized in water-free DMSO (41647, Fluka) at a concentration of 1 mg/ml for approximately 30 min at room temperature (RT) and then visually checked for complete solubilization.
Endogenous Aβ40 in mice was determined with the Meso Scale Discovery (MSD) 96-well MULTI-ARRAY human/rodent (4G8) Aβ40 Ultrasensitive Assay (#K110FTE-3, Meso Scale Discovery, Gaithersburg, USA). The assay was performed according to the manufacturer's instructions except for the calibration curve and the sample preparations. TritonX-100 (TX-100) soluble Aβ40 was extracted from forebrain with 1% TX-100 using a 50 μl aliquot of each 1:10 forebrain homogenate, mixed with 50 μl 2% TX-100 in TBS complete (20 mM Tris-HCl pH 7.4, 137 mM NaCl, 1× Complete [Protease Inhibitor Cocktail Tablets: 1 836 145, Roche Diagnostics GmbH, Penzberg Germany]) to reach a final concentration of 1% TX-100 and a 1:20 forebrain dilution. The samples were incubated for 15 min on ice and vortexed every 5 min. The samples were ultra-centrifuged (100000×g, 4° C., 15 min) and 50 μl of the clear supernatants were transferred to fresh tubes. For the Aβ40 assay the supernatants were further diluted 1:5 in 3% Blocker A solution (from kit) to a final forebrain dilution of 1:100 and applied to the plate.
The calibration curve was prepared in a corresponding dilution of 1% Blocker A solution spiked with synthetic Aβ1-40 peptide (1.56-100 pg/ml) except for non-transgenic mouse brain samples: In this case, the calibration curve was prepared in a correspondingly diluted APP knockout mouse forebrain spiked with synthetic Aβ1-40 peptide (1.56-100 pg/ml). For all samples and standards 25 μl were applied per well. For each determination duplicate wells were performed. The mean values from the duplicate wells were used for calculations.
At the last day of the study, groups of n=4 mice were sacrificed 4 hours and 24 hours after having received the last dose. Forebrain was separated, and analyzed for β-amyloid peptide 1-40. Concentrations of Aβ40 for the vehicle and treatment groups are summarized in Table 6 and visualised in FIG. 2. The percent of reduction versus the corresponding vehicle treated group was calculated.

Compound: C[C@@]1(c2nc(NC(=O)c3ncc(C(F)(F)F)cc3Cl)ccc2F)CO[C@@](C)(C(F)(F)F)C(N)=N1 [Compound 1, N-(6-((3R,6R)-5-amino-3,6-dimethyl-6-(trifluoromethyl)-3,6-dihydro-2H-1,4-oxazin-3-yl)-5-fluoropyridin-2-yl)-3-chloro-5-(trifluoromethyl)picolinamide]
- Formic acid soluble Total Aβ change vs vehicle (total Aβ (40+42); APP23, 0.03 g/kg vs vehicle): −17.9%
- Formic acid soluble Total Aβ change vs vehicle (total Aβ (40+42); APP23, 0.3 g/kg vs vehicle): −79.8%
- reduction of deposited Aβ40 and Aβ42 vs vehicle (total Aβ (40+42); APP23, high dose): around 80%
- reduction of deposited Aβ40 and Aβ42 compared to vehicles (total Aβ (40+42); APP23, low dose): around 17%
- Distal IBA1+ area (IBA1 positive microglia; APP23, 0.03 g/kg food): 2.74 ± 0.42
- Non-plaque-associated IBA1+ area* (IBA1 positive microglia; APP23, 0.03 g/kg food): 3.98 ± 0.54
- Plaque-associated IBA1+ area (IBA1 positive microglia; APP23, 0.03 g/kg food): 1.79 ± 0.51
- Proximal IBA1+ area (IBA1 positive microglia; APP23, 0.03 g/kg food): 1.23 ± 0.22
- Total IBA1+ area (IBA1 positive microglia; APP23, 0.03 g/kg food): 5.76 ± 0.83
- Distal IBA1+ area, change vs vehicle (IBA1 positive microglia; APP23, 0.03 g/kg vs vehicle): −28.9%
- Non-plaque-associated IBA1+ area*, change vs vehicle (IBA1 positive microglia; APP23, 0.03 g/kg vs vehicle): −39.2%
- Plaque-associated IBA1+ area, change vs vehicle (IBA1 positive microglia; APP23, 0.03 g/kg vs vehicle): −40.5%
- Proximal IBA1+ area, change vs vehicle (IBA1 positive microglia; APP23, 0.03 g/kg vs vehicle): −47.4%
- Total IBA1+ area, change vs vehicle (IBA1 positive microglia; APP23, 0.03 g/kg vs vehicle): −37.4%
- Distal IBA1+ area (IBA1 positive microglia; APP23, 0.3 g/kg food): 5.05 ± 0.98
- Non-plaque-associated IBA1+ area* (IBA1 positive microglia; APP23, 0.3 g/kg food): 5.70 ± 1.00
- Plaque-associated IBA1+ area (IBA1 positive microglia; APP23, 0.3 g/kg food): 0.88 ± 0.19
- Proximal IBA1+ area (IBA1 positive microglia; APP23, 0.3 g/kg food): 0.65 ± 0.05
- Total IBA1+ area (IBA1 positive microglia; APP23, 0.3 g/kg food): 6.31 ± 0.92
- Distal IBA1+ area, change vs vehicle (IBA1 positive microglia; APP23, 0.3 g/kg vs vehicle): +30.7%
- Non-plaque-associated IBA1+ area*, change vs vehicle (IBA1 positive microglia; APP23, 0.3 g/kg vs vehicle): −8.2%
- Plaque-associated IBA1+ area, change vs vehicle (IBA1 positive microglia; APP23, 0.3 g/kg vs vehicle): −70.6%
- Proximal IBA1+ area, change vs vehicle (IBA1 positive microglia; APP23, 0.3 g/kg vs vehicle): −72.2%
- Total IBA1+ area, change vs vehicle (IBA1 positive microglia; APP23, 0.3 g/kg vs vehicle): −28.5%
- Average Aβ40 brain (Aβ40; C57BL/6, 8 μmol/kg q.d. 8 weeks, 4 h after last dose): 432.8 ± 140.5 pg/g
- Average Aβ40 brain (Aβ40; C57BL/6, 8 μmol/kg q.d. 8 weeks, 24 h after last dose): 1098.6 ± 148.7 pg/g
- % reduction vs vehicle (brain Aβ40) (Aβ40; C57BL/6, 8 μmol/kg, 4 h after last dose): 67.1%
- % reduction vs vehicle (brain Aβ40) (Aβ40; C57BL/6, 8 μmol/kg, 24 h after last dose): 25% and 25.3%
- Mini AU EC (brain Aβ40) (Aβ40; C57BL/6, 8 μmol/kg, after last dose): 46.2%
- Average Aβ40 brain (Aβ40; C57BL/6, 50 μmol/kg q.d. 8 weeks, 4 h after last dose): 93.4 ± 83.7 pg/g
- Average Aβ40 brain (Aβ40; C57BL/6, 50 μmol/kg q.d. 8 weeks, 24 h after last dose): 233.8 ± 36.5 pg/g
- % reduction vs vehicle (brain Aβ40) (Aβ40; C57BL/6, 50 μmol/kg, 4 h after last dose): 92.9%
- % reduction vs vehicle (brain Aβ40) (Aβ40; C57BL/6, 50 μmol/kg, 24 h after last dose): 84.1%
- Mini AU EC (brain Aβ40) (Aβ40; C57BL/6, 50 μmol/kg, after last dose): 88.5%
- Aβ40 reduction over the whole 24 hour time course (Aβ40; C57BL/6, 50 μmoles/kg, after last dose): 80-90%
